Measured values published in patent publication US8697708B2, “Azabenzothiazole compounds, compositions and methods of use” (F. Hoffmann-La Roche AG, priority 2010, dated 2014).
Counter-ions that a name gives are not always drawn.

Molecular target: TYK2 (Homo sapiens (Human), UniProt P29597)
Test: JAK1, JAK2 and TYK2 Inhibition Assay Protocol (Example A): TYK2 kinase domain, Caliper LabChip peptide phosphorylation
Type: biochemical
Conditions: isolated TYK2 kinase domain, 1 nM enzyme, 25 μM ATP, Morrison tight binding model
Experimental: The activity of the isolated JAK1, JAK2 or TYK2 kinase domain was measured by monitoring phosphorylation of a peptide derived from JAK3 (Val-Ala-Leu-Val-Asp-Gly-Tyr-Phe-Arg-Leu-Thr-Thr) fluorescently labeled on the N-terminus with 5-carboxyfluorescein using the Caliper LabChip technology (Caliper Life Sciences, Hopkinton, Mass.). […] Reactions were incubated at 22° C. in 384-well polypropylene microtiter plates for 30 minutes and then stopped by addition of 25 μL of an EDTA containing solution (100 mM Hepes pH 7.2, 0.015% Brij-35, 150 mM EDTA), resulting in a final EDTA concentration of 50 mM. After termination of the kinase reaction, the proportion of phosphorylated product was determined as a fraction of total peptide substrate using the Caliper LabChip 3000 according to the manufacturer's specifications. Ki values were then determined using the Morrison tight binding model. Morrison, J. F., Biochim. Biophys. Acta. 185:269-296 (1969); William, J. W. and Morrison, J. F., Meth. Enzymol., 63:437-467 (1979).

Sequence of TYK2 (P29597 897-1176): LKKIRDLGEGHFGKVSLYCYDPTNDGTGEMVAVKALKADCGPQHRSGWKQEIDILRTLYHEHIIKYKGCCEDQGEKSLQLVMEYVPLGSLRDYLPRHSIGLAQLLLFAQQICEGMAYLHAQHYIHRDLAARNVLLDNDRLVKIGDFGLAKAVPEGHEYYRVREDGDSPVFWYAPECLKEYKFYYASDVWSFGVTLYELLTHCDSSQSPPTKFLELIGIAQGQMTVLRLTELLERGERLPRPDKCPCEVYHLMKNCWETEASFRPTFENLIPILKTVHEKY

| Structure (SMILES) | Ki [nM] |
| --- | --- |
| O=C(CO)Nc1nccc2nc(-c3c(Cl)cccc3Cl)sc12 [Example 10, N-(2-(2,6-Dichlorophenyl)thiazolo[5,4-c]pyridin-4-yl)-2-hydroxyacetamide] | 23 |
| O=C(Nc1nccc2nc(-c3c(F)cccc3Cl)sc12)NC1CC1 [Example 16, 1-(2-(2-Chloro-6-fluorophenyl)thiazolo[5,4-c]pyridin-4-yl)-3-cyclopropylurea] | 1.4 |
| O=C(Nc1ncnc2nc(-c3c(Cl)cccc3Cl)sc12)C1CC1 [Example 24, N-(2-(2,6-dichlorophenyl)thiazolo[4,5-d]pyrimidin-7-yl)cyclopropanecarboxamide] | 6.2 |
| Cc1cc(Nc2nccc3nc(-c4ccccc4Cl)sc23)nc(C)n1 [Example 56, 2-(2-chlorophenyl)-N-(2,6-dimethylpyrimidin-4-yl)thiazolo[5,4-c]pyridin-4-amine] | 8.6 |
| CCc1cc(Nc2nccc3nc(-c4c(Cl)cc(C(N)=O)cc4Cl)sc23)ncn1 [Example 129, 3,5-Dichloro-4-[4-(6-ethylpyrimidin-4-ylamino)thiazolo[5,4-c]pyridin-2-yl]-benzamide] | 1.6 |
| Cc1cc(Nc2nccc3nc(-c4c(Cl)cc(C5CC5)cc4Cl)sc23)ncn1 [Example 138, [2-(2,6-Dichloro-4-cyclopropylphenyl)thiazolo[5,4-c]pyridin-4-yl]-(6-methylpyrimidin-4-yl)-amine] | 4.1 |
| N#Cc1cc(Cl)c(-c2nc3c(F)cnc(NC(=O)C4CC4)c3s2)c(Cl)c1 [Example 213, Cyclopropane-carboxylic acid [2-(2,6-dichloro-4-cyano-phenyl)-7-fluorothiazolo[5,4-c]pyridin-4-yl]-amide] | 1.5 |

Stronger by Ki, values ahead:

| Ki [nM] | Structure (SMILES) |
| --- | --- |
| 0.5 | O=C(Nc1nccc2nc(-c3c(Cl)cccc3Cl)sc12)C1CC1 [Example 2, N-(2-(2,6-Dichlorophenyl)thiazolo[5,4-c]pyridin-4-yl)cyclopropanecarboxamide] |
| 0.3 | OCc1ccnc(Nc2nccc3nc(-c4c(Cl)cccc4Cl)sc23)c1 [Example 18, (2-(2-(2,6-dichlorophenyl)thiazolo[5,4-c]pyridin-4-ylamino)pyridin-4-yl)methanol] |
| 1 | Cc1cc(Nc2nccc3nc(-c4c(Cl)cc(CO)cc4Cl)sc23)ncn1 [Example 22, {3,5-Dichloro-4-[4-(6-methyl-pyrimidin-4-ylamino)-thiazolo[5,4-c]pyridin-2-yl]-phenyl}-methanol] |
| 0.4 | N#Cc1cnc(Nc2cc(N)ncn2)c2sc(-c3c(F)cccc3Cl)nc12 [Example 223, 4-(6-aminopyrimidin-4-ylamino)-2-(2-chloro-6-fluorophenyl) thiazolo[5,4-c] pyridine-7-carbonitrile] |
| 0.3 | N#Cc1cccc(F)c1-c1nc2c(C#N)cnc(Nc3cc(N)ncn3)c2s1 [Example 224, 4-(6-aminopyrimidin-4-ylamino)-2-(2-cyano-6-fluorophenyl) thiazolo[5,4-c] pyridine-7-carbonitrile] |
| 0.8 | Cc1cc(Nc2nccc3nc(-c4c(C#N)cc(C#N)cc4C#N)sc23)nc(C)n1 [Example 227, 2-(4-(2,6-dimethylpyrimidin-4-ylamino)thiazolo[5,4-c]pyridin-2-yl)benzene-1,3,5-tricarbonitrile] |
| 0.5 | Cc1nc(CO)cc(Nc2nccc3nc(-c4c(Cl)cccc4C#N)sc23)n1 [Example 236, 3-Chloro-2-[4-(6-hydroxy-methyl-2-methyl-pyrimidin-4-ylamino)-thiazolo[5,4-c]pyridin-2-yl]-benzonitrile hydrochloride salt] |
